Experimental data as given in US11325937B2, “Glycoside compound and preparation method therefor, composition, application, and intermediate” (SHANGHAI HUTCHISON PHARMACEUTICALS LIMITED, priority 2018, dated 2022).

Test system: HUVEC-12 endothelial cells
Assay: Proliferation of HUVEC-12 endothelial cells (MTT)
Format: cell-based, Human
Settings: HUVEC-12 treated with supernatant of macrophages co-incubated 24 h with compound, 10 μM (s- groups)
Description: The experiment included seven groups. In Group 1, HUVEC-12 endothelial cells (purchased from Shanghai RongChuang Biotech Co., Ltd.) were treated directly with simple DMEM medium (Gibcol, Shanghai) containing 10% FBS ([…], Germany) (control). In Group 2, the endothelial cells were treated with the supernatant obtained 24 h after macrophages were cultured with DMEM medium containing 10% FBS (s-control). […] In Group 5, the endothelial cells cultured with DMEM medium containing 10% FBS were treated directly with Cpd-18 (Salvianolate) (cpd-18, 10 μM). In Group 6, the endothelial cells were treated with the supernatant obtained after macrophages cultured with DMEM medium containing 10% FBS were treated and co-incubated with Cpd-18 (Salvianolate, 10 μM) for 24 h (s-cpd18). In Group 7, the endothelial cells cultured with DMEM medium containing 10% FBS were treated directly with VEGFD (Recombinant Human VEGF165, 10 ng/mL). Human umbilical vein endothelial cells HUVEC-12 in logarithmic growth phase were counted, adjusted to a cell density of 2.5×10^4 cells/mL, and inoculated in 100 μL per well in a 96-well plate. […] Based on the measured absorbance (OD), the HUVEC-12 endothelial cells treated directly with simple DMEM medium (control) were used as a blank control (Group 1), the percentage of cell proliferation in each group was calculated, and compared. […]

COc1ccc(CCCCO[C@@H]2O[C@H](CO)[C@@H](O)[C@H](O)[C@H]2O)cc1 [TG-028]
promotion of proliferation of endothelial cells (in words): more potent promotion on the proliferation of endothelial cells than the direct treatment of endothelial cells with VEGF
